# In patent US6194451A, “Matrix metalloproteinase inhibitors” (Pharmacia & Upjohn S.p.A., priority 1997, dated 2001):
# What was measured:
# [1] = tested on: release of TNF from THP-1 cells; assay: Cellular Assay (Protocol B): inhibition of release of TNF from LPS-stimulated THP-1 cells; type: cell-based; conditions: Homo sapiens, LPS 5 microg/mL, 4 h
# Procedure: For example, the following cell-based assay was used to assess such activity:
# THP-1 cells, cultured in RPMI 1640 supplemented with 10% FCS, were distributed into 24-well plates, 1 mL of a suspension of 1×10^6 cells/mL in each well. Compounds to be tested, dissolved in DMSO and diluted with the culture medium (1% final DMSO concentration) were added. Plates were incubated for 30 min at 37° C. in 5% CO2, and lipopolisaccharide (LPS 0111:B4, 5 microg/mL) was added as a stimulant. After a further 4 h incubation, cells were harvested, centrifuged (2,000 rpm, 7 min), and the surnatant was collected and freezed (-20° C.) until analysis. Analysis was run by classical ELISA methodology (monoclonal anti-TNF-a antibody, rabbit capture policlonal antibody, and peroxidated anti-rabbit antibody).
# [2] = target: T1, MMP-1 (human interstitial collagenase) (Homo sapiens, UniProt P03956); assay: Biochemical Assay (Protocol A): inhibition of human collagenase, fluorimetric peptide substrate; conditions: MMP-1, pH 7.4, 37° C.
# T1 construct: truncated recombinant enzyme encompassing residues 101-269
# T1 sequence (P03956 101-269): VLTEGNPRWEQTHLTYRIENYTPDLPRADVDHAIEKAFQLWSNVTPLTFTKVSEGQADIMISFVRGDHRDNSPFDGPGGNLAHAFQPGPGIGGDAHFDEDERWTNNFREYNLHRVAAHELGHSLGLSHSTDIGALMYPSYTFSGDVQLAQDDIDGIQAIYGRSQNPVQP
# From the text: (§1) As mentioned above, although low molecular weight MMP inhibitors, including hydroxamates of general formula (A), are already known, there is a strong need for better and diversified molecules for their use in medicine, that is in particular in the control or prevention of degenerative joint diseases such as rheumatoid arthritis and osteoarthritis, or in the management of multiple sclerosis, or in the treatment of invasive tumors. […] For example, the following protocol was used to assess the biochemical activity of compounds of formula (I) against MMP-1, MMP-2, and MMP-3 (respectively, human interstitial collagenase, gelatinase A, and stromelysin-1).
# (§2) Human gelatinase-A (MMP-2) was obtained as pro-enzyme (72 kDa) and was activated with 1 mM 4-aminophenylmercuric acetate for 30 min at 37° C. immediately prior to use. Human stromelysin-1 (MMP-3) was obtained as a recombinant pro-enzyme isolated either from E. coli or from baculovirus infected Sf9 insect cells and activated either by heat (1 h, 55° C.) or by 5 mg/l trypsin (30 min, 37° C.) before addition of soybean trypsin inhibitor, finally removed by centrifugation.
# (§3) All enzyme assays to determine values of the enzyme-inhibitor dissociation constants were performed using the peptide substrate (7-methoxycoumarin-4-yl)Acetyl-Pro-Leu-Gly-Leu-(3-[2,4-dinitrophenyl]-L-2,3-diaminopropionyl)-Ala-Arg-NH2 (Mca-Pro-Leu-Gly-Leu-Dpa-Ala-Arg--NH2) (C. G. Knight et al., FEBS Lett. 296:263-266, 1992). The enzymes cleave at the Gly-Leu bond removing the internally quenching Dpa group. The release of the highly fluorescent peptide Mca-Pro-Leu was followed fluorimetrically setting the excitation wavelength at 326 nm (bandwidth 5 nm) and the emission at 392 nm (bandwidth 20 nm).
# (§4) Continuous fluorescence assay was carried out using a Perkin Elmer LS-50 Fluorescence Spectrophotometer fitted with a thermostatted four position stirring cell changer. Inhibitors were dissolved in the assay buffer ([…] Tris/HCl pH 7.4 containing 0.15 M NaCl, 10 mM CaCl2, 0.01 mM ZnCl2 and 0.05% Brij 35) thermostatted at 37° C. The reaction was started by the addition of substrate ([…]), followed by the addition of the enzyme (e.g. 1.0 nM collagenase, 0.04 nM gelatinase, or 3.0 nM stromelysin) and the increase in fluorescence was monitored over 30 min. The run was repeated at different concentrations of inhibitors in the range 0.1-10000 nM and data at inhibitor concentration in the region if their enzyme-inhibitor dissociation constants were used for calculation.
# (§5) Substrate consumption was within 5% of the initial concentration and data outside this range were discarded. The Michaelis constants (Km) for the enzyme-substrate complexes is […] or greater (C. G. Knight et al., reference above), so that the factor (1+S/Km) can be approximated to unity without appreciable error.
# [3] = target: T2, MMP-2 (human gelatinase A) (Homo sapiens, UniProt P08253); assay: Biochemical Assay (Protocol A): inhibition of human gelatinase A, fluorimetric peptide substrate; conditions: MMP-2, pH 7.4, 37° C.
# T2 sequence (P08253 110-660): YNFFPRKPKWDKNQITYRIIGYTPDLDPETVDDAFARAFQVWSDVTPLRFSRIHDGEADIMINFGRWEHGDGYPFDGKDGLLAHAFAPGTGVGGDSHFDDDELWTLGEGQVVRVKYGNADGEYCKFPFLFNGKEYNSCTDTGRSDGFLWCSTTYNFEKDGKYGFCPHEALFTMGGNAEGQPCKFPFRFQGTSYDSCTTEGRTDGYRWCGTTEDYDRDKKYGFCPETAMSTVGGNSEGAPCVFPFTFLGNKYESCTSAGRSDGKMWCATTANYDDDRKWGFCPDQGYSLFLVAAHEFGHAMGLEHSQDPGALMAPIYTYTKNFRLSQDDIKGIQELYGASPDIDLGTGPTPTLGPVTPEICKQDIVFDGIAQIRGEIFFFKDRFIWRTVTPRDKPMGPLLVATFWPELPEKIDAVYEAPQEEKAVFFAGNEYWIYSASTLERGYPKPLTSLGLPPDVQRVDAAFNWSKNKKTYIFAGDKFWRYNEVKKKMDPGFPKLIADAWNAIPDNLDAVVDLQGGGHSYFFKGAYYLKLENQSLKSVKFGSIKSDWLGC
# From the text: as §1, §2, §3, §4, §5
# [4] = target: T3, MMP-3 (human stromelysin-1) (Homo sapiens, UniProt P08254); assay: Biochemical Assay (Protocol A): inhibition of human stromelysin-1, fluorimetric peptide substrate; conditions: MMP-3, pH 7.4, 37° C.
# T3 construct: host or cells: E. coli or baculovirus-infected Sf9 insect cells
# From the text: as §1, §2, §3, §4, §5
# Aqueous solubility = type: physicochemical; conditions: water, pH 7.0, 25° C.
# Procedure: Further, several compounds of formula (I), in particular when R2 is hydroxy, and when R1 is hydroxymethyl, have enhanced water solubility as compared to the vast majority of MMP inhibitors of the prior art. An aqueous solubility threshold, which may vary widely but can be roughly set in the range of 1-10 mg/mL, makes systemic administration easy, and more than often is essential to good oral bioavailability.
# T3 sequence (P08254 100-477): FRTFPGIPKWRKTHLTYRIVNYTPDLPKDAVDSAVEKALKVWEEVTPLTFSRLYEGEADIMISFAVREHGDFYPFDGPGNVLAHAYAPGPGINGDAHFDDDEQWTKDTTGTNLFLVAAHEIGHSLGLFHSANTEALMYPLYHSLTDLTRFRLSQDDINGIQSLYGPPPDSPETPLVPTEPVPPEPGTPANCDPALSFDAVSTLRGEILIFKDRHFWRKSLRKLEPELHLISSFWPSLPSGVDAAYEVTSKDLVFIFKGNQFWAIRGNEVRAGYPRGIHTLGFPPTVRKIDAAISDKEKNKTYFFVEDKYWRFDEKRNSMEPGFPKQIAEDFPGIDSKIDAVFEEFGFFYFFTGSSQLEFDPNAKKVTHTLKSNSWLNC
SMILES,IC50 [1] [µM],Ki [2] [µM],Ki [3] [µM],Ki [4] [µM],solubility (Aqueous solubility) [µg/mL],inhibition at 100 µM ([1]; at 100 microM) [%]
"CNC(=O)[C@@H](NC(=O)[C@H](CC(C)C)[C@](O)(COC1CCCCO1)C(=O)NO)C(C)(C)C (stereo partly drawn) [Example 2, [(2R,3S)-3-Hydroxy-4-hydroxyamino-2-isobutyl-3-(tetrahydro-pyran-2-yloxymethyl)succinyl]-L-tert-leucine-N-methylamide]",5.2,,,,,
"CNC(=O)[C@@H](NC(=O)[C@H](CC(C)C)[C@](O)(COC(C)=O)C(=O)NO)C(C)(C)C [Example 9, [(2R,3S)-3-Acetoxymethyl-3-hydroxy-4-hydroxyamino-2-isobutyl-succinyl]-L-tert-leucine-N-methylamide]",,0.0022,0.0017,0.11,> 9000,
"CC(=O)OC[C@](O)(C(=O)NO)[C@@H](CC(C)C)C(=O)N[C@H](C(=O)Nc1ccncc1)C(C)(C)C [Example 11, [(2R,3S)-3-Acetoxymethyl-3-hydroxy-4-hydroxyamino-2-isobutyl-succinyl]-L-tert-leucine-N-(4-pyridyl)amide]",,0.0073,0.0047,0.0049,3400,
"CNC(=O)[C@@H](NC(=O)[C@H](CC(C)C)[C@](O)(COC(=O)C(C)(C)C)C(=O)NO)C(C)(C)C [Example 13, [(2R,3S)-3-Hydroxy-4-hydroxyamino-2-isobutyl-3-(tri-methylacetoxy)methyl-succinyl]-L-tert-leucine-N-methylamide]",,0.0034,0.0065,0.071,1300,

# Continued, in another order:
IC50 [1] [µM],Ki [2] [µM],Ki [3] [µM],Ki [4] [µM],solubility (Aqueous solubility) [µg/mL],SMILES,inhibition at 100 µM ([1]; at 100 microM) [%]
1.49,0.0027,0.00062,0.015,,"CNC(=O)[C@H](Cc1ccccc1)NC(=O)[C@H](CC(C)C)[C@](O)(COC1CCCCO1)C(=O)NO (stereo partly drawn) [Example 5, [(2R,3S)-3-Hydroxy-4-hydroxyamino-2-isobutyl-3-(tetrahydro-pyran-2-yloxymethyl)succinyl]-L-phenylalanine-N-methylamide]",
65.4,0.067,0.023,0.43,,"CNC(=O)[C@H](Cc1ccccc1)NC(=O)[C@H](CC(C)C)[C@@](O)(COC1CCCCO1)C(=O)NO (stereo partly drawn) [Example 6, [(2R,3R)-3-Hydroxy-4-hydroxyamino-2-isobutyl-3-(tetrahydro-pyran-2-yloxymethyl)succinyl]-L-phenylalanine-N-methylamide]",
,0.0015,0.0031,0.032,6000,"CNC(=O)[C@H](Cc1ccccc1)NC(=O)[C@H](CC(C)C)[C@](O)(CO)C(=O)NO [Example 7, [(2R,3S)-3-Hydroxy-4-hydroxyamino-3-hydroxymethyl-2-isobutyl-succinyl]-L-phenylalanine-N-methylamide]",90
,0.045,0.04,1.1,10000,"CNC(=O)[C@@H](NC(=O)[C@H](CC(C)C)[C@@](COC1CCCCO1)(OC1CCCCO1)C(=O)NO)C(C)(C)C (stereo partly drawn) [Example 8, [(2R,3S)-4-Hydroxyamino-2-isobutyl-3-(2-tetrahydropyranyl)oxy-3-(2-tetrahydropyranyl)oxymethylsuccinyl]-L-tert-leucine-N-methylamide]",
,0.0068,0.0095,0.01,> 10000,"CC(C)C[C@@H](C(=O)N[C@H](C(=O)Nc1ccncc1)C(C)(C)C)[C@](O)(CO)C(=O)NO [Example 12, [(2R,3S)-3-Hydroxy-4-hydroxyamino-3-hydroxymethyl-2-isobutyl-succinyl]-L-tert-leucine-N-(4-pyridyl)amide]",
,0.025,0.019,0.88,5800,"CNC(=O)[C@H](Cc1ccccc1)NC(=O)[C@H](CC(C)C)C1(C(=O)NO)CC1 [Example 20, [2R-(1-Hydroxyaminocarbonyl)cyclopropyl-4-methylpentanoyl]-L-phenylalanine-N-methylamide]",
